Source: US10206955B2, “Compositions of ascorbic acid and bone morphogenetic protein 4 (BMP-4) for cell growth and uses related thereo” (EMORY UNIVERSITY, priority 2014, dated 2019)

Columns and labels:
[1] = system: aMHC-GFP-MTTFs; assay: Quantification of GFP+ cells in aMHC-GFP reporter MTTFs; type: cell-based, mouse; conditions: for GFP expression (aMHC-GFP): agent alone
Procedure: (§1) To enhance the reprogramming potential of miRNAs, AA and BMP4 were added one day after miR-transfection (FIG. 1A). Between 4-6 days, spontaneously contracting cells appeared in groups treated with […], miR-208b-3p, or miR-499-5p, but not with miR-208a-3p and miR-208b-5p or all miRNA. The latter groups were excluded from further experiments. To further confirm the results, MTTFs were isolated from aMHC-GFP reporter mice (aMHC-GFP-MTTFs) and quantified GFP+ cells after treating with […], miR-208b-3p, or miR-499-5p in combination with AA and BMP4. […] TNNT2+ cells occupied 1.8±0.6% of MTTFs treated with miR-208b-3p, AA and BMP4 by flow cytometry analyses. This reprogramming rate is smaller than the number of aMHC-GFP+ cells because TNNT2 is a more specific and mature marker for CMs.
(§2) Mouse tail-tip fibroblasts (MTTFs) isolated from 1-4 month old transgenic mice carrying a GFP reporter driven by αMHC or human ubiquitin C (UBC) promoters were cultured in DMEM/F-12 (Invitrogen) containing 10% FBS (Atlanta Biologicals), 1% Glutamax (Invitrogen), 1% non-essential amino acids (Invitrogen) and 1% Antibiotic-Antimycotic (Invitrogen). αMHC-GFP transgenic mice were kindly given by Dr. Mark Sussman (San Diego State University) and UBC-GFP mice (C57BL/6-Tg(UBC-GFP)30Scha/J) were purchased from the Jackson Laboratory. After 3-5 passages, MTTFs were frozen until use. […]

[2] = system: Myh6; assay: mRNA expression of Myh6 (aMHC) in treated MTTFs; type: cell-based, mouse; conditions: miRNA with AA and BMP4
Procedure: as §1, §2

[3] = system: mouse tail-tip fibroblasts (MTTFs); assay: Spontaneous contraction of miRNA-transfected MTTFs after adding AA and BMP4; type: cell-based; conditions: AA and BMP4 added one day after miR-transfection; between 4-6 days
Procedure: as §1
(§3) Mouse tail-tip fibroblasts (MTTFs) isolated from 1-4 month old transgenic mice carrying a GFP reporter driven by αMHC or human ubiquitin C (UBC) promoters were cultured in DMEM/F-12 (Invitrogen) containing 10% FBS (Atlanta Biologicals), 1% Glutamax (Invitrogen), 1% non-essential amino acids (Invitrogen) and 1% Antibiotic-Antimycotic (Invitrogen). αMHC-GFP transgenic mice were kindly given by Dr. Mark Sussman (San Diego State University) and UBC-GFP mice (C57BL/6-Tg(UBC-GFP)30Scha/J) were purchased from the Jackson Laboratory. After 3-5 passages, MTTFs were frozen until use. MTTFs at 70-80% of confluence were transfected with a synthetic miRNA mimic (20 nM), miR-1a-2-5p (Qiagen, MSY0017047, 5′-[…]-3′)(SEQ ID NO: 135), miR-208a-3p (Qiagen, MSY0000520, 5′-[…]-3′)(SEQ ID NO: 136), miR-208b-3p (Qiagen, MSY0004939, 5′-[…]-3′)(SEQ ID NO: 1), miR-208b-5p (Qiagen, MSY0017280, 5′-[…]-3′)(SEQ ID NO: 137), miR-499-5p (Qiagen, MSY0003482, 5′-[…]-3′) (SEQ ID NO: 3) or Scramble-miR (Dharmacon, CN-001000-01-05) using Lipofectamine 2000 (Invitrogen), and cultured in advanced DMEM/F12 (Invitrogen) containing 5% FBS (Atlanta Biologicals), 0.5% Glutamax (Invitrogen), 0.5% non-essential amino acids and 1% Antibiotic-Antimycotic (Invitrogen) with or without AA (ascorbic acid, Sigma, 0.2 mM) and BMP4 (R&D Systems, 10 ng/ml) for fibroblast reprogramming. Cells on a culture dish spontaneously aggregated as a patch-like CMT on day 10. In the case of no spontaneous formation, the border of a culture dish was scratched and cells were lifted up with a pipette to expedite cell aggregation into a CMT.

[4] = system: mouse tail-tip fibroblasts (MTTFs); assay: qRT-PCR of lineage markers at day 6 (vascular-lineage reprogramming); type: cell-based; conditions: protocol with AA and BMP4
Procedure: as §3, with “Cells on a culture dish spontaneously aggregated as a patch-like CMT on day 10. In the case of no spontaneous formation, the border of a culture dish was scratched and cells were lifted up with a pipette to expedite cell aggregation into a CMT.” left out

[5] = system: mouse tail-tip fibroblasts (MTTFs); assay: Reprogramming of MTTFs with miRNA mimics alone: CM gene expression, ACTN2 immunocytochemistry; type: cell-based; conditions: miRNA mimic alone, without AA and BMP4
Description: The reprogramming potential of muscle-specific miRNA mimics, miR-1a-2-5p, miR-208a-3p, miR-208b-3p, miR-208b-5p, and miR-499-5p was investigated in mouse tail-tip fibroblasts (MTTFs). […] Immunocytochemistry confirmed expression of a CM marker sarcomeric α-actinin (ACTN2) in single miRNA transfected cells. However ACTN2 expression was diffuse, sarcomeric organization was poor and spontaneously contracting cells were not observed in any miRNA transfected MTTFs.
as §2

**Q.** Which “GFP expression (aMHC-GFP)” value [1] does the source give for `O=C1O[C@H]([C@@H](O)CO)C(O)=C1O` [AA, (R)-5-((S)-1,2-dihydroxyethyl)-3,4-dihydroxyfuran-2(5H)-one, reference compound] here?
**A.** Its value is “did not induce GFP expression”.

**Q.** What does the source list for “miR-1a-2-5p: synthetic miRNA mimic, Qiagen MSY0017047, 5′-ACAUACUUCUUUAUGUAGUACCCAUA-3′ (SEQ ID NO: 135) (chemistry not given here)”?
**A.** mRNA expression of Myh6 [2]: increased trend; spontaneously contracting cells [3]: appeared

**Q.** With “miR-208a-3p: synthetic miRNA mimic, Qiagen MSY0000520, 5′-AUAAGACGAGCAAAAAGCUUGU-3′ (SEQ ID NO: 136) (chemistry not given here)” as the molecule, how does the spontaneously contracting cells [3] read?
**A.** The spontaneously contracting cells was “not”.

**Q.** “miR-208b-3p: synthetic miRNA mimic, Qiagen MSY0004939, 5′-AUAAGACGAACAAAAGGUUUGU-3′ (SEQ ID NO: 1) (listed as RNA, chemistry not given here; listed as Mus musculus)” was tested. Which “GFP expression (aMHC-GFP-positive cells) of MTTFs” value ([1]; miRNA in combination with AA and BMP4) did it give?
**A.** Its value is 22.0±2.6%.

**Q.** And the “mRNA expression of Myh6” value [2]?
**A.** The value was “significantly increased”.

**Q.** What about the spontaneously contracting cells [3] of the same molecule?
**A.** The spontaneously contracting cells was “appeared”.

**Q.** And the “expression of EC and SMC genes (qRT-PCR)” value [4]?
**A.** Its value is “increased expression”.

**Q.** And the “expression of CM genes Mef2c, Nkx2-5, Gata4 and Myh6” value [5]?
**A.** Its value is “most effective”.

**Q.** With “miR-208b-5p: synthetic miRNA mimic, Qiagen MSY0017280, 5′-AAGCUUUUUGCUCGCGUUAUGU-3′ (SEQ ID NO: 137) (chemistry not given here)” as the molecule, how does the spontaneously contracting cells [3] read?
**A.** The spontaneously contracting cells was “not”.

**Q.** With “miR-499-5p: synthetic miRNA mimic, Qiagen MSY0003482, 5′-UUAAGACUUGCAGUGAUGUUU-3′ (SEQ ID NO: 3) (listed as RNA, chemistry not given here; listed as Mus musculus)” as the molecule, how does the spontaneously contracting cells [3] read?
**A.** The spontaneously contracting cells was “appeared”.

B1: BMP4: secreted disulfide-linked homodimeric BMP-4, a TGF-beta superfamily ligand (R&D Systems) (protein, listed as Homo sapiens)
chain: SPKHHPQRSRKKNKNCRRHSLYVDFSDVGWNDWIVAPPGYQAFYCHGDCPFPLADHLNSTNHAIVQTLVNSVNSSIPKACCVPTELSAISMLYLDEYDKVVLKNYQEMVVEGCGCR
modifications: homodimer
**Q.** Which “GFP expression (aMHC-GFP)” value [1] does the source give for B1 here?
**A.** Its value is “did not induce GFP expression”.
